Test systems include UACC-257 melanoma; SF-268 CNS; SF-295 CNS; NCI-H460 lung; K-562 leukemia; HOP-62 NSCLC; OVCAR-5 ovarian; SK-MEL-5 melanoma; SR leukemia; DU-145 prostate.
Common to all, as to assay: NCI anticancer screen, dose series, 48 h

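All cell lines were grown in 96-well plates and treated with compound for 48 hours. Abbreviation: GI50, concentration required for 50% inhibition of growth. Definition used: TGI = concentration required for complete inhibition of growth.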

`COc1ccc(-c2c(N)[n+]([O-])c3ccccc3[n+]2[O-])cc1OC`: the TGI in the assay on UACC-257 melanoma, with SF-268 CNS, in the assay with SF-295 CNS, in the assay on NCI-H460 lung, in the assay on K-562 leukemia and in the assay with HOP-62 NSCLC was more than 100 µM throughout. For the same compound, the TGI in the assay on OVCAR-5 ovarian, in the assay with SK-MEL-5 melanoma and in the assay on SR leukemia was more than 100 µM each time.

Regarding `COc1ccc(OC)c2c(=S)c3ccccc3[nH]c12`, the TGI in the assay on UACC-257 melanoma was more than 100 µM; with SF-268 CNS, more than 100 µM; in the assay with SF-295 CNS, more than 100 µM; in the assay with NCI-H460 lung, more than 85 µM; with DU-145 prostate, more than 100 µM; in the assay with K-562 leukemia, more than 92.6 µM. Moreover, the TGI with HOP-62 NSCLC is more than 100 µM; in the assay on OVCAR-5 ovarian, more than 100 µM; with SK-MEL-5 melanoma, 70.1 µM; with SR leukemia, more than 100 µM.

Turning to `NC(=O)c1ccc2nc3c(n2c1)C(=O)C(=O)c1ccccc1-3`, the GI50 in the assay with UACC-257 melanoma was 0.57 µM; with SF-268 CNS, 0.436 µM; in the assay on SF-295 CNS it was 1.67 µM; in the assay on NCI-H460 lung, 1.53 µM; with DU-145 prostate, 0.928 µM; in the assay on K-562 leukemia, 0.677 µM. Further, the GI50 was 1.39 µM with HOP-62 NSCLC, 1.72 µM in the assay with OVCAR-5 ovarian, 0.936 µM in the assay with SK-MEL-5 melanoma and 0.488 µM in the assay with SR leukemia. Further, the TGI turned out to be 1.78 µM in the assay with UACC-257 melanoma; 1.66 µM with SF-268 CNS; 3.07 µM with SF-295 CNS; 3.34 µM in the assay on NCI-H460 lung; 2.24 µM in the assay on DU-145 prostate; 3.73 µM in the assay on K-562 leukemia. In addition, the TGI with HOP-62 NSCLC was 2.8 µM; in the assay on OVCAR-5 ovarian, 3.15 µM; with SK-MEL-5 melanoma it was 2.25 µM; in the assay with SR leukemia it was 3.86 µM.

With `CC1C(=O)O[C@H]2C1CC[C@@]1(C)[C@H](O)CC[C@@]13C[C@]2(O)OO3` (some centres undefined), the TGI in the assay with UACC-257 melanoma, with SF-268 CNS, in the assay with SF-295 CNS, in the assay with NCI-H460 lung, in the assay on K-562 leukemia and with HOP-62 NSCLC was more than 100 µM each time. Besides, the TGI with OVCAR-5 ovarian, in the assay with SK-MEL-5 melanoma and with SR leukemia was more than 100 µM each time.

Regarding `OCc1ccc(N(CCN2CCCC2)Cc2ccc(F)cc2)cc1Cl`, the GI50 was 14.7 µM with UACC-257 melanoma; 21 µM in the assay on SF-268 CNS; 3.47 µM in the assay with NCI-H460 lung; 17.1 µM in the assay on DU-145 prostate; 16.2 µM in the assay on K-562 leukemia; 17.9 µM in the assay on HOP-62 NSCLC. The GI50 with OVCAR-5 ovarian is 16 µM; in the assay on SK-MEL-5 melanoma, 15 µM; with SR leukemia, 16.1 µM. Also, the TGI with UACC-257 melanoma came out at 29 µM; in the assay with SF-268 CNS it was 69 µM; in the assay on NCI-H460 lung, 13.9 µM; in the assay with DU-145 prostate, 39.7 µM; with K-562 leukemia, 40.4 µM; in the assay on HOP-62 NSCLC, 42.1 µM. For the same compound, the results for the TGI in the assay with OVCAR-5 ovarian, in the assay with SK-MEL-5 melanoma and with SR leukemia were 40.5 µM, 28.4 µM and 44.8 µM, respectively.

Take `CCC(C(=O)c1ccccc1)C(CCCC(=O)Nc1c(C)cccc1C)N=O` (centres undefined): the TGI with UACC-257 melanoma, with SF-268 CNS, in the assay on SF-295 CNS, in the assay with NCI-H460 lung, in the assay on K-562 leukemia and in the assay on HOP-62 NSCLC was more than 100 µM throughout. Moreover, the TGI in the assay with OVCAR-5 ovarian, in the assay on SK-MEL-5 melanoma and in the assay with SR leukemia was more than 100 µM throughout.

Regarding `O=[N+]([O-])c1ccc(Cl)cc1N/N=C/c1cccc2cccnc12`, the TGI in the assay with UACC-257 melanoma, with SF-268 CNS, with SF-295 CNS, with NCI-H460 lung, with DU-145 prostate and in the assay with K-562 leukemia was more than 100 µM in each case. The results for the TGI with HOP-62 NSCLC, in the assay on SK-MEL-5 melanoma and in the assay on SR leukemia were more than 100 µM, more than 100 µM and 38 µM, respectively.

In the case of `COc1cc(/C=C2\C(=O)Nc3cccc(Cl)c32)cc(OC)c1OC`, the GI50 in the assay with UACC-257 melanoma was more than 100 µM; in the assay with SF-268 CNS, more than 100 µM; with SF-295 CNS, more than 100 µM; in the assay on NCI-H460 lung it was more than 100 µM; in the assay with K-562 leukemia it was 29.2 µM; in the assay on HOP-62 NSCLC it was 32.6 µM. Moreover, the GI50 is 46.4 µM in the assay with OVCAR-5 ovarian, more than 100 µM with SK-MEL-5 melanoma and 1.55 µM in the assay on SR leukemia. Moreover, the TGI in the assay with UACC-257 melanoma, in the assay on SF-268 CNS, in the assay with SF-295 CNS, in the assay on NCI-H460 lung, with K-562 leukemia and with HOP-62 NSCLC was more than 100 µM throughout. Besides, the TGI was more than 100 µM in the assay on OVCAR-5 ovarian, more than 100 µM in the assay with SK-MEL-5 melanoma and 25.1 µM with SR leukemia.

For the compound `N#CC1C2CCC3(CC2CCN1C(=O)c1ccccc1)OCCO3` (centres undefined), the TGI with UACC-257 melanoma, in the assay on SF-268 CNS, in the assay on SF-295 CNS, in the assay on NCI-H460 lung, in the assay with K-562 leukemia and in the assay with HOP-62 NSCLC was more than 100 µM throughout. Further, the TGI in the assay on OVCAR-5 ovarian, in the assay on SK-MEL-5 melanoma and in the assay with SR leukemia was more than 100 µM in each case.

Take `O=C1CS/C(=N\S(=O)(=O)c2ccc(N3N=C4c5ccccc5CC4C3c3ccc(Cl)cc3)cc2)N1c1ccccc1` (centres undefined): the GI50 with UACC-257 melanoma is 92.9 µM; with SF-268 CNS, 22.7 µM; in the assay with SF-295 CNS it was 35.8 µM; with NCI-H460 lung, 19.7 µM; in the assay with DU-145 prostate, 33.9 µM; with K-562 leukemia, 18.7 µM. Further, the GI50 is 56.8 µM in the assay with HOP-62 NSCLC, 32.2 µM with SK-MEL-5 melanoma and 11.4 µM with SR leukemia. Moreover, the TGI with UACC-257 melanoma is more than 100 µM; in the assay on SF-268 CNS it was 84.8 µM; in the assay on SF-295 CNS, 98.7 µM; in the assay with NCI-H460 lung it was 48.9 µM; in the assay on DU-145 prostate, more than 100 µM; in the assay with K-562 leukemia, 40.3 µM. The TGI in the assay on HOP-62 NSCLC was more than 100 µM; in the assay with SK-MEL-5 melanoma it was more than 100 µM; with SR leukemia it was 28.1 µM.

The record behind these values is PubChem BioAssay (NCI).
